14 compounds from patent publication US10266548B2, “Substituted benzylindazoles for use as Bub1 kinase inhibitors in the treatment of hyperproliferative diseases” (Bayer Intellectual Property GmbH, priority 2011, dated 2019) can be followed below.

One test has as its system B16F10 cells. The test can be described thus: Proliferation assay (B16F10 cell line). The format is cell-based. The settings on record: Mus musculus, B16-F10, 96 h, read-out: Biological Assay 2: Proliferation assay (B16F10 cell line) median IC50. The method, then:
(§1) Cultivated tumor cells (cells were ordered from ATCC, except HeLa-MaTu and HeLa-MaTu-ADR, which were ordered from EPO-GmbH, Berlin) were plated at a density of 1000 to 5000 cells/well, depending on the growth rate of the respective cell line, in a 96-well multititer plate in 200 μL of their respective growth medium supplemented 10% fetal calf serum. After 24 hours, the cells of one plate (zero-point plate) were stained with crystal violet (see below), while the medium of the other plates was replaced by fresh culture medium (200 μl), to which the test substances were added in various concentrations (0 μM, as well as in the range of 0.001-10 μM; the final concentration of the solvent dimethyl sulfoxide was 0.5%). The cells were incubated for 4 days in the presence of test substances. Cell proliferation was determined by staining the cells with crystal violet: the cells were fixed by adding 20 μl/measuring point of an 11% glutaric aldehyde solution for 15 minutes at room temperature. After three washing cycles of the fixed cells with water, the plates were dried at room temperature. The cells were stained by adding 100 μl/measuring point of a 0.1% crystal violet solution (pH 3.0). After three washing cycles of the stained cells with water, the plates were dried at room temperature. The dye was dissolved by adding 100 μl/measuring point of a 10% acetic acid solution. […] The change of cell number, in percent, was calculated by normalization of the measured values to the aborbtion values of the zero-point plate (=0%) and the absorbtion of the untreated (0 μm) cells (=100%). The IC50 values were determined by means of a 4 parameter fit using the company's own software.

Another test deals with HeLa cells. Description: Proliferation assay (HeLa cell line). As to conditions: Homo sapiens, 96 h, read-out: Biological Assay 2: Proliferation assay (HeLa cell line) median IC50. Format: cell-based.
The next test relates to DU145 cells. Description: Proliferation assay (DU145 cell line). As to conditions: Homo sapiens, DU-145, 96 h, read-out: Biological Assay 2: Proliferation assay (DU145 cell line) median IC50. The format is cell-based. The method, then: as §1
The test system of a further test is Caco2 cells. The test can be described thus: Proliferation assay (Caco2 cell line). Format: cell-based. The settings on record: Homo sapiens, Caco-2, 96 h, read-out: Biological Assay 2: Proliferation assay (Caco2 cell line) median IC50. The method, then:
as §1

The target of test [1] is catalytic domain of human Bub1 (amino acids 704-1085) (Homo sapiens (Human), UniProt O43683). The test can be described thus: Bub1 kinase assay (TR-FRET). Format: biochemical. The settings on record: 10 μM ATP, 1 μM peptide substrate; read-out: Biological Assay 1: Bub1 kinase assay median IC50. In outline: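 Phosphoserine product detected by TR-FRET (Eu-labeled anti-mouse IgG/anti-phosphoserine antibody to streptavidin-XL665) after 1 h at 22 °C. IC50 from 4-parameter logistic fit.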
Sequence of catalytic domain of human Bub1 (amino acids 704-1085) (O43683 704-1085): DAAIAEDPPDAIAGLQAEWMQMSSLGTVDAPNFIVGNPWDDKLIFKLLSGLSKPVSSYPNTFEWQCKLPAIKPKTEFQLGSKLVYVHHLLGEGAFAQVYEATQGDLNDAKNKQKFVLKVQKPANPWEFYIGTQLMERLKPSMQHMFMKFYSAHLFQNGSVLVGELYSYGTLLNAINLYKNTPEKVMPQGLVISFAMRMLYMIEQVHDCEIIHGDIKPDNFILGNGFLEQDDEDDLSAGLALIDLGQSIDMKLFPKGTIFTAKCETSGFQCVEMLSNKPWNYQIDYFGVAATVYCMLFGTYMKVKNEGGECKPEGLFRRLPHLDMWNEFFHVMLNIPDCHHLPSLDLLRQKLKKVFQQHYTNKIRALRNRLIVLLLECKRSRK

Another test relates to HeLa-MaTu-ADR cells. The test can be described thus: Proliferation assay (HeLa-MaTu-ADR cell line). As to conditions: 96 h, read-out: Biological Assay 2: Proliferation assay (HeLa-MaTu-ADR cell line) median IC50. Format: cell-based. The method, then: as §1
The subject of another test is NCI-H460 cells. Description: Proliferation assay (H460 cell line). Format: cell-based. The settings on record: Homo sapiens, NCI-H460, 96 h, read-out: Biological Assay 2: Proliferation assay (H460 cell line) median IC50. The method, then: as §1
The mark [2] stands for this setting: HeLa-MaTu-ADR, 4 days, crystal violet.

Read-outs that look alike come from different tables or passages of the source.

Take `COc1cnc(-c2nn(Cc3c(F)ccc(OC)c3F)c3ccccc23)nc1Nc1ccncc1` [Example 2-4-1, 2-[1-(2,6-difluoro-3-methoxybenzyl)-1H-indazol-3-yl]-5-methoxy-N-(pyridin-4-yl)pyrimidin-4-amine]: the IC50 is 1200 nM in the test with B16F10 cells (B16F10, 4 days, crystal violet); 3500 nM in the test on HeLa cells (4 days, crystal violet); 3300 nM with DU145 cells (DU145, 4 days, crystal violet); 1400 nM in the test on Caco2 cells (Caco2, 4 days, crystal violet); 4.5 nM in test [1]; 1300 nM with HeLa-MaTu-ADR cells (setting [2]). In addition, the IC50 in the test with NCI-H460 cells (H460, 4 days, crystal violet) worked out at 4200 nM.

On to `COc1cnc(-c2nn(Cc3cc4c(cc3Br)OCO4)c3ccccc23)nc1Nc1ccncc1` [Example 2-4-3, 2-{1-[(6-bromo-1,3-benzodioxol-5-yl)methyl]-1H-indazol-3-yl}-5-methoxy-N-(pyridin-4-yl)pyrimidin-4-amine], for which the IC50 with B16F10 cells (B16F10, 4 days, crystal violet) amounted to 1500 nM; in the test with HeLa cells (4 days, crystal violet), 3900 nM; in the test with DU145 cells (DU145, 4 days, crystal violet) it was 2500 nM; with Caco2 cells (Caco2, 4 days, crystal violet), 1900 nM; in test [1] it was 14 nM; in the test on HeLa-MaTu-ADR cells (setting [2]), 100 nM. In addition, in the test with NCI-H460 cells (H460, 4 days, crystal violet), the IC50 worked out at 9000 nM.

Consider `COc1cnc(-c2nn(Cc3c(Cl)cccc3Cl)c3ccccc23)nc1Nc1ccncc1` [Example 2-9-1, 2-[1-(2,6-dichlorobenzyl)-1H-indazol-3-yl]-5-methoxy-N-(pyridin-4-yl)pyrimidin-4-amine], for which the IC50 turned out to be 9500 nM in the test with B16F10 cells; 10000 nM with DU145 cells; 10000 nM in the test on Caco2 cells; 6.7 nM in test [1]; 8100 nM with HeLa-MaTu-ADR cells; 10000 nM in the test with NCI-H460 cells.

Regarding `COC(=O)c1ccc(Cn2nc(-c3ncc(OC)c(Nc4ccncc4)n3)c3ccccc32)c(Cl)c1` [Example 2-11-1, methyl 3-chloro-4-({3-[5-methoxy-4-(pyridin-4-ylamino)pyrimidin-2-yl]-1H-indazol-1-yl}methyl)benzoate], the IC50 with B16F10 cells (B16F10, 4 days, crystal violet) stood at 2900 nM; with HeLa cells (4 days, crystal violet), 290 nM; in the test on DU145 cells (DU145, 4 days, crystal violet), 3000 nM; in the test on Caco2 cells (Caco2, 4 days, crystal violet) it was 3000 nM; in test [1], 7.1 nM; with HeLa-MaTu-ADR cells (setting [2]), 3000 nM. In addition, the IC50 in the test on NCI-H460 cells (H460, 4 days, crystal violet) stood at 3000 nM.

Turning to `COC(=O)c1ccc(CN(c2ccncc2)c2nc(-c3nn(Cc4ccc(C(=O)OC)cc4Cl)c4ccccc34)ncc2OC)c(Cl)c1` [Example 2-11-2, methyl 3-chloro-4-{[(2-{1-[2-chloro-4-(methoxycar-bonyl)benzyl]-1H-indazol-3-yl}-5-methoxypyrimidin-4-yl)(pyridin-4-yl)amino]methyl} benzoate], the IC50 in the test on B16F10 cells stood at 2100 nM; in the test on HeLa cells, 3400 nM; with DU145 cells, 3600 nM; in the test on Caco2 cells it was 8000 nM; in test [1] it was 540 nM; with HeLa-MaTu-ADR cells it was 10000 nM. For the same compound, in the test with NCI-H460 cells, the IC50 worked out at 2300 nM.

`COc1cnc(-c2nn(Cc3c(F)cc(Br)cc3F)c3ccccc23)nc1Nc1ccncc1` [Example 2-12-1, 2-[1-(4-bromo-2,6-difluorobenzyl)-1H-indazol-3-yl]-5-methoxy-N-(pyridin-4-yl)pyrimidin-4-amine]: the IC50 in the test on B16F10 cells amounted to 1400 nM; in the test on HeLa cells it was 1600 nM; in the test with DU145 cells it was 1600 nM; with Caco2 cells it was 1400 nM; in test [1], 7.3 nM; with HeLa-MaTu-ADR cells it was 1300 nM. In addition, in the test with NCI-H460 cells, the IC50 stood at 1500 nM.

For the compound `COc1cnc(-c2nn(Cc3c(F)c(F)c(OC)c(F)c3F)c3ccccc23)nc1Nc1ccncc1` [Example 2-24-1, 5-methoxy-N-(pyridin-4-yl)-2-[1-(2,3,5,6-tetrafluoro-4-methoxybenzyl)-1H-indazol-3-yl]pyrimidin-4-amine], the IC50 came to 1400 nM in the test with B16F10 cells; 3100 nM in the test on HeLa cells; 1300 nM with DU145 cells; 1500 nM in the test with Caco2 cells; 14 nM in test [1]; 1300 nM in the test on HeLa-MaTu-ADR cells. Moreover, in the test on NCI-H460 cells, the IC50 stood at 2000 nM.

In the case of `CCCc1ccc(Cn2nc(-c3ncc(OC)c(Nc4ccncc4)n3)c3ccccc32)cc1` [Example 2-25-1, 5-methoxy-2-[1-(4-propylbenzyl)-1H-indazol-3-yl]-N-(pyridin-4-yl)pyrimidin-4-amine], the IC50 in the test on B16F10 cells (B16F10, 4 days, crystal violet) was 10000 nM; with HeLa cells (4 days, crystal violet), 9800 nM; with DU145 cells (DU145, 4 days, crystal violet) it was 10000 nM; in the test on Caco2 cells (Caco2, 4 days, crystal violet) it was 10000 nM; in test [1] it was 15 nM; in the test with HeLa-MaTu-ADR cells (setting [2]) it was 10000 nM. Also, in the test on NCI-H460 cells (H460, 4 days, crystal violet), the IC50 was 10000 nM.

With `COc1cnc(-c2nn(Cc3c(Cl)cc(OC(F)(F)F)cc3Cl)c3ccccc23)nc1Nc1ccncc1` [Example 2-26-1, 2-{1-[2,6-dichloro-4-(trifluoromethoxy)benzyl]-1H-indazol-3-yl}-5-methoxy-N-(pyridin-4-yl)pyrimidin-4-amine], the IC50 in the test on B16F10 cells stood at 420 nM; in the test with HeLa cells, 560 nM; with DU145 cells, 530 nM; in the test on Caco2 cells, 380 nM; in test [1], 16 nM; in the test on HeLa-MaTu-ADR cells, 390 nM. Moreover, the IC50 in the test on NCI-H460 cells amounted to 1000 nM.

As to `COc1cnc(-c2nn(Cc3ccc4c(C)cc(=O)oc4c3)c3ccccc23)nc1Nc1ccncc1` [Example 2-32-1, 7-({3-[5-methoxy-4-(pyridin-4-ylamino)pyrimidin-2-yl]-1H-indazol-1-yl}methyl)-4-methyl-2H-chromen-2-one], the IC50 in the test with B16F10 cells (B16F10, 4 days, crystal violet) came out at 1300 nM; in the test with HeLa cells (4 days, crystal violet), 4200 nM; in the test on DU145 cells (DU145, 4 days, crystal violet), 5300 nM; in the test with Caco2 cells (Caco2, 4 days, crystal violet) it was 2400 nM; in test [1], 29 nM; with HeLa-MaTu-ADR cells (setting [2]), 2300 nM. The IC50 with NCI-H460 cells (H460, 4 days, crystal violet) stood at 8500 nM.

In the case of `COc1cnc(-c2nn(Cc3c(Cl)ccc(C(F)(F)F)c3Cl)c3ccccc23)nc1Nc1ccncc1` [Example 2-34-1, 2-{1-(2,6-dichloro-3-(trifluoromethyl)benzyl]-1H-indazol-3-yl}-5-methoxy-N-(pyridin-4-yl)pyrimidin-4-amine], the IC50 is 1200 nM in the test with B16F10 cells (B16F10, 4 days, crystal violet); 1600 nM in the test on HeLa cells (4 days, crystal violet); 2600 nM in the test with DU145 cells (DU145, 4 days, crystal violet); 3400 nM in the test with Caco2 cells (Caco2, 4 days, crystal violet); 38 nM in test [1]; 1200 nM in the test on HeLa-MaTu-ADR cells (setting [2]). The IC50 in the test with NCI-H460 cells (H460, 4 days, crystal violet) is 6600 nM.

Turning to `COc1cnc(-c2nn(Cc3c(F)cc(C#N)cc3F)c3ccccc23)nc1Nc1ccncc1` [Example 2-46-1, 3,5-difluoro-4-({3-[5-methoxy-4-(pyridin-4-ylamino)pyrimidin-2-yl]-1H-indazol-1-yl}methyl)benzonitrile], the IC50 with B16F10 cells turned out to be 710 nM; in the test with HeLa cells, 1400 nM; in the test with DU145 cells, 850 nM; in the test with Caco2 cells, 900 nM; in test [1], 16 nM; in the test on HeLa-MaTu-ADR cells, 380 nM. The IC50 with NCI-H460 cells worked out at 880 nM.

In the case of `OCC1(COc2cnc(-c3nn(Cc4ccccc4F)c4ccccc34)nc2Nc2ccncc2)COC1` [Example 4-2-1, {3[({2-[1-(2-fluorobenzyl)-1H-indazol-3-yl]-4-(pyridin-4-ylamino)pyrimidin-5-yl}oxy)methyl]oxetan-3-yl}methanol], the IC50 with B16F10 cells was 3700 nM; with HeLa cells, 8700 nM; in the test on DU145 cells, 10000 nM; in the test with Caco2 cells, 9900 nM; in test [1], 3.3 nM; in the test on HeLa-MaTu-ADR cells, 5800 nM. Besides, in the test with NCI-H460 cells, the IC50 worked out at 6500 nM.

With `CN(C)CCOc1cnc(-c2nn(Cc3ccccc3F)c3ccccc23)nc1Nc1ccncc1` [Example 4-4, 5-[2-(dimethyl-amino)ethoxy]-2-[1-(2-fluorobenzyl)-1H-indazol-3-yl] N-(pyridin-4-yl)pyrimidin-4-amine], the IC50 worked out at 500 nM in the test on B16F10 cells (B16F10, 4 days, crystal violet); 3400 nM in the test with HeLa cells (4 days, crystal violet); 4500 nM with DU145 cells (DU145, 4 days, crystal violet); 900 nM with Caco2 cells (Caco2, 4 days, crystal violet); 14 nM in test [1]; 1200 nM in the test on HeLa-MaTu-ADR cells (setting [2]). Also, the IC50 in the test on NCI-H460 cells (H460, 4 days, crystal violet) came to 3500 nM.
